This note sets out measurements from PubChem BioAssay (NCI).

Test systems include ACHN renal; COLO 205 colon; DU-145 prostate; HT29 colon; K-562 leukemia; NCI-H460 lung; OVCAR-8 ovarian; SW-620 colon; T-47D breast; UO-31 renal.
Common to all, as to assay: NCI tumour cell line growth inhibition, 48 h

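Values below derive from 48-hour exposures of cells grown in 96-well plates, with endpoints linearly interpolated between the two concentrations bracketing the appropriate inhibition level. Here, GI50 denotes the concentration required for 50% inhibition of growth. Definition used: TGI = concentration required for complete inhibition of growth.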

Turning to `CC(=O)/C(C)=N/NC(=O)c1ccccc1O`, the GI50 with ACHN renal, in the assay with COLO 205 colon, in the assay on HT29 colon, in the assay on NCI-H460 lung, in the assay with OVCAR-8 ovarian and in the assay on SW-620 colon was over 100 µM throughout. The TGI in the assay on ACHN renal, in the assay with COLO 205 colon, with DU-145 prostate, in the assay on HT29 colon, in the assay with K-562 leukemia and in the assay on NCI-H460 lung was over 100 µM throughout. Moreover, the TGI in the assay on OVCAR-8 ovarian is over 100 µM; in the assay with SW-620 colon, over 100 µM; in the assay with T-47D breast, over 100 µM; with UO-31 renal, over 10 µM.

As to `COc1ccc(Nc2c3ccccc3nc3occc23)cc1`, the GI50 with ACHN renal was 9.95 µM; in the assay with COLO 205 colon it was 2 µM; with DU-145 prostate, 14.2 µM; in the assay with HT29 colon, 1.49 µM; in the assay with K-562 leukemia it was 0.292 µM; in the assay on NCI-H460 lung, 0.87 µM. The GI50 in the assay with OVCAR-8 ovarian is 5.71 µM; in the assay with SW-620 colon it was 2.9 µM; in the assay on UO-31 renal, 22.5 µM. The TGI was over 80.6 µM with ACHN renal; over 100 µM with DU-145 prostate; 28.1 µM with NCI-H460 lung; over 100 µM in the assay with OVCAR-8 ovarian; 39.5 µM in the assay with SW-620 colon; over 38.2 µM with T-47D breast. This molecule also showed a TGI with UO-31 renal of over 100 µM.

For the molecule `CN1c2ccc(Cl)cc2C(=O)NC1c1ccc([N+](=O)[O-])s1` (stereo not drawn), the TGI in the assay on ACHN renal amounted to 51.7 µM; with COLO 205 colon, 66.4 µM; in the assay with DU-145 prostate, 45.1 µM; in the assay on HT29 colon, 39.1 µM; with K-562 leukemia, 34.8 µM; in the assay on NCI-H460 lung it was 36.4 µM. For the same molecule, the TGI with OVCAR-8 ovarian is 38.9 µM; with SW-620 colon, over 100 µM; in the assay on T-47D breast, 55 µM; in the assay on UO-31 renal it was 26.5 µM.

As for `NS(=O)(=O)c1ccc(NC2(C(=O)O)CCCC2)cc1`, the TGI with ACHN renal, in the assay with COLO 205 colon, in the assay on DU-145 prostate, with HT29 colon, in the assay on K-562 leukemia and in the assay on NCI-H460 lung was over 100 µM in each case. For the same molecule, the TGI in the assay on OVCAR-8 ovarian, in the assay with SW-620 colon, with T-47D breast and in the assay with UO-31 renal was over 100 µM each time.

On to `O=C1OC(C(O)CO)C(=O)C1=O` (stereo not drawn), for which the GI50 with ACHN renal was 2860 µM; in the assay on COLO 205 colon, 2800 µM; with DU-145 prostate, 1720 µM; in the assay with HT29 colon, 4240 µM; with K-562 leukemia, 2860 µM; in the assay on NCI-H460 lung it was 3540 µM. In addition, the GI50 in the assay on OVCAR-8 ovarian is 5270 µM; in the assay with SW-620 colon it was 2070 µM; in the assay with T-47D breast, 2790 µM; in the assay on UO-31 renal, 1850 µM. The TGI in the assay on ACHN renal is over 10000 µM; in the assay on COLO 205 colon it was 6730 µM; in the assay with DU-145 prostate it was 3130 µM; with HT29 colon, over 10000 µM; in the assay on K-562 leukemia, 9080 µM; with NCI-H460 lung, over 10000 µM. Further, the TGI in the assay with OVCAR-8 ovarian is over 10000 µM; with SW-620 colon it was 5080 µM; with T-47D breast it was 7700 µM; with UO-31 renal it was 4600 µM.

Turning to `O=C(N/N=C/c1ccc(Cl)cc1)c1ccc(C(F)(F)F)nc1Nc1cccc(C(F)(F)F)c1`, the GI50 with ACHN renal is 2.73 µM; in the assay on COLO 205 colon, 1.8 µM; in the assay on DU-145 prostate, 2.33 µM; in the assay on HT29 colon, 1.44 µM; in the assay on K-562 leukemia it was 3.15 µM; in the assay with NCI-H460 lung it was 1.66 µM. Also, the GI50 with OVCAR-8 ovarian is 2.23 µM; in the assay on SW-620 colon, 1.45 µM; with T-47D breast, 2.06 µM; in the assay on UO-31 renal it was 1.66 µM. Also, the TGI in the assay with ACHN renal is 8.77 µM; with COLO 205 colon it was 4.31 µM; in the assay with DU-145 prostate, 10.8 µM; in the assay with HT29 colon, 11.7 µM; in the assay on K-562 leukemia, over 35.9 µM; in the assay with NCI-H460 lung it was 6.6 µM. For the same molecule, the TGI came out at 15.1 µM in the assay with OVCAR-8 ovarian, 10.4 µM in the assay with SW-620 colon, 10.7 µM in the assay on T-47D breast and 5.42 µM in the assay with UO-31 renal.

`C=C1C(=O)O[C@@H]2/C=C(\C)CC/C=C(/COC(C)=O)C[C@@H](OC(C)=O)[C@@H]12`: the TGI with ACHN renal is 17 µM; with COLO 205 colon it was 14.1 µM; with DU-145 prostate, 19.2 µM; in the assay on HT29 colon, over 40.9 µM; in the assay on K-562 leukemia it was over 33.8 µM; with NCI-H460 lung, 26 µM. The TGI is over 55.3 µM with OVCAR-8 ovarian, 15.4 µM in the assay on SW-620 colon, 26.6 µM in the assay on T-47D breast and 22.3 µM in the assay with UO-31 renal.

As for `Cc1cccc(N2CCN(C(=S)c3ccc4c(c3)OCO4)CC2)c1`, the GI50 was 3.88 µM with ACHN renal; 0.582 µM with COLO 205 colon; 2.34 µM in the assay with DU-145 prostate; 0.521 µM in the assay with K-562 leukemia; 0.472 µM in the assay with NCI-H460 lung; 1.81 µM in the assay on OVCAR-8 ovarian. In addition, the GI50 is 0.467 µM in the assay with SW-620 colon, 0.934 µM with T-47D breast and 14.4 µM in the assay on UO-31 renal. Besides, the TGI was over 100 µM with ACHN renal; 4.9 µM in the assay on COLO 205 colon; over 100 µM in the assay on DU-145 prostate; over 100 µM in the assay with K-562 leukemia; 37.5 µM in the assay with NCI-H460 lung; over 100 µM in the assay with OVCAR-8 ovarian. Moreover, the TGI in the assay on SW-620 colon, with T-47D breast and in the assay on UO-31 renal was over 100 µM each time.

On to `C=C1C(=O)O[C@H]2[C@H]1CC/C(COC(=O)C(=O)c1cn(Cc3ccccc3)c3ccccc13)=C\CC[C@@]1(C)O[C@@H]21`, for which the GI50 was 2.08 µM in the assay with COLO 205 colon; 2.96 µM in the assay with DU-145 prostate; 2.02 µM in the assay on HT29 colon; 2.66 µM in the assay on K-562 leukemia; 2.84 µM with NCI-H460 lung; 3.04 µM with OVCAR-8 ovarian. Besides, the GI50 in the assay with SW-620 colon is 2.33 µM; with T-47D breast it was 2.04 µM; with UO-31 renal it was 1.61 µM. Further, the TGI in the assay with COLO 205 colon was 4.46 µM; in the assay with DU-145 prostate it was 11.3 µM; in the assay with HT29 colon, 4.53 µM; in the assay on K-562 leukemia, 10.4 µM; with NCI-H460 lung, 12.2 µM; with OVCAR-8 ovarian, 11.4 µM. For the same molecule, the TGI in the assay with SW-620 colon came out at 7.77 µM; in the assay on T-47D breast it was 4.85 µM; in the assay with UO-31 renal, 3.1 µM.
